pEC50: −log10 of the molar value. ≈ marks a conversion by molar mass, not a printed value.
Key:
[1] = Solubility measurements in 0.2 M phosphate buffer pH 7.4; type: physicochemical; conditions: 0.2 M phosphate buffer pH 7.4, ambient temperature, results from two dilutions; for Solubility: 24 h; for solubility at 24 h: phosphate buffer, pH 7.4, aqueous buffer, thermodynamic from solid
Description: Solubilities of a di- and a mono-acylated compound were measured in 0.2 M phosphate buffer pH 7.4 and compared with the solubility of the corresponding non-acylated compound.
Saturated compound solutions were prepared by mixing the compounds and the buffer solution at ambient temperature for 24 h followed by separation of the aqueous solution by centrifugation. Standard solutions of compounds (1.00 mg/mL) were prepared in DMSO.
The compound concentrations were measured by HPLC-MS/UV (Waters Alliance 2790 Separations Module/996 PDA detector/Micromass Quattro Micro) after appropriate dilutions of the aqueous saturated solutions ( 1/10 and 1/100) and the standard solutions ( 1/100, 1/200, and 1/1000), respectively, with mobile phase solvent.

[2] = tested on: EAE in female Dark Agouti (DA) rats; assay: Experimental autoimmune encephalomyelitis (EAE) MS model in rats; type: in vivo, rat; conditions: FIG. 1
Description: EAE was induced day 0 in female Dark Agouti (DA) rats with subcutaneous injection of spinal cord homogenate (SCH, approximately 2 mg, from naive rats) emulsified in incomplete Freunds adjuvant (IFA, total volume 100 ul per rat) at the base of the tail. Disease was evaluated daily from day 5 until the end of the experiment (day 22) according to following criteria: 0=healthy, 1=tail weakness, 2=tail paralysis, 3=tail paralysis and mild waddle, 4=tail paralysis and severe waddle, 5=tail paralysis and paralysis of one limb, 6=tail paralysis and paralysis of both hind limbs, 7=tetraparesis or paralysis of three limbs, and 8=premorbid or dead. Statistical analysis was performed using Prism 5 for Mac OS X (GraphPad Software, San Diego, Calif., USA).
Treatment was initiated day 0 after EAE induction with following treatment injections administered day 3, 6, and 9. The dose was administered as a 500 uL corn oil solution subcutaneously at the lower back. Treatment groups were mixed in all cages to avoid cage effects.
Control (vehicle, corn oil, Sigma Aldrich), 11 animals
Cyclosporin A (positive control, Sigma Aldrich), 10 mg/kg, first dissolved in 70% EtOH to 50 mg/mL, 11 animals
Compound 9 (N-acetyl-N-phenyl-4-acetoxy-5-chloro-1,2-dihydro-1-methyl-2-oxo-quinoline-3-carboxamide, Example 74), 1 mg/kg, 10 animals

human AhR = molecular target: T1, human AhR (Homo sapiens, UniProt P35869); assay: Activation of human AhR, GeneBLAzer CYP1A1-bla LS-180 beta-lactamase reporter-gene assay; type: cell-based; conditions: assay reference compound (control activator)
T1 construct: host or cells: GeneBLAzer CYP1A1-bla LS-180 cell line
T1 sequence (P35869 11-848): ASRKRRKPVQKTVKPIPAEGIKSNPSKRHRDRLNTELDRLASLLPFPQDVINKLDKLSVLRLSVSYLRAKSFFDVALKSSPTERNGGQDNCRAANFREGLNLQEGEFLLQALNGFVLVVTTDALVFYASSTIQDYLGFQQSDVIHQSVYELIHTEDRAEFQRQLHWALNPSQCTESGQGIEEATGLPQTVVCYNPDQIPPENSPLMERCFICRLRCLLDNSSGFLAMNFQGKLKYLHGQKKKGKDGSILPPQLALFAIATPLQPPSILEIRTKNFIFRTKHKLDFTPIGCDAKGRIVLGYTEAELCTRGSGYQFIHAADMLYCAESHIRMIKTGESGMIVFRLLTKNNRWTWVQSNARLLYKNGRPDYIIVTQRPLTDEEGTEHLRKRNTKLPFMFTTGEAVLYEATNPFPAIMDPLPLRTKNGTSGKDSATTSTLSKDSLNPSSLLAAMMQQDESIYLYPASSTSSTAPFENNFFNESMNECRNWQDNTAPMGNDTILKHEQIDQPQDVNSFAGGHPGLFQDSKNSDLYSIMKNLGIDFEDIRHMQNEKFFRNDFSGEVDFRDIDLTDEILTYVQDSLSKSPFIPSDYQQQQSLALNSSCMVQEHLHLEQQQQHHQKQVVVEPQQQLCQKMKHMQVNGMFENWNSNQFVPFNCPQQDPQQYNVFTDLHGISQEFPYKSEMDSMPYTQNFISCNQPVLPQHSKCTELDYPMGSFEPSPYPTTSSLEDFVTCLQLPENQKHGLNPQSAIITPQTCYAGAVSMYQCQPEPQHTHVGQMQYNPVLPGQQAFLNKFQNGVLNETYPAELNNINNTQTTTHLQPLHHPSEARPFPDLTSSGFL
Description: Activation of the aryl hydrocarbon receptor can be measured in cell-based reporter-gene assays, which consist of cell lines containing the aryl hydrocarbon recptor and transfected with a reporter gene regulated by activated Ahr via an XRE (xenobiotic response element). AhR activation will thus result in an enhanced expression of the reporter protein (e.g. luciferase) which functional activity can be measured.
Activation of human AhR was measured in the GeneBLAzer® CYP1A1-bla LS-180 cell line (Invitrogen Corporation, Madison, www.invitrogen.com/drugdiscovery) using a beta-lactamase reporter gene (bla) combined with a FRET-enabled substrate sensitive to bla expression.
CYP1A1-bla LS-180 cells are harvested and suspended in Assay Media (OPTI-MEM, 0.5% dialyzed FBS, 0.1 mM NEAA, 1 mM Sodium Pyruvate, 100 U/mL/100 μg/mL Pen/Strep) to a concentration of 625,000 cells/mL. 32 μL of cell suspension (20,000 cells) is added to each well of a 384-well Poly-D-Lysine assay plate. Cells in assay media are incubated for 16-24 hours in the plate at 37° C./5% CO2 in a humidified incubator. 4 μL of a 10× serial dilution of beta-naphthoflavone (control activator starting concentration, 100,000 nM) or compounds are added to appropriate wells. 4 μL of Assay Media is added to all wells to bring the final assay volume to 40 μL. […] The plate is read on a fluorescence plate reader. […]

SMILES | Solubility [1] [µg/mL] | solubility at 24 h [1] [µg/mL] | also measured
CC(=O)Oc1c(C(=O)Nc2ccccc2)c(=O)n(C)c2ccccc12 [Compound 2, N-phenyl-4-acetoxy-1,2-dihydro-1-methyl-2-oxo-quinoline-3-carboxamide] | 221 (≈ 657 µM) | 186 (≈ 553 µM) | 
CC(=O)Oc1c(C(=O)N(C(C)=O)c2ccccc2)c(=O)n(C)c2cccc(Cl)c12 [Compound 9, N-acetyl-N-phenyl-4-acetoxy-5-chloro-1,2-dihydro-1-methyl-2-oxo-quinoline-3-carboxamide] |  |  | severity of the first disease period after discontinuation of treatment ([2]; 1 mg/kg s.c. day 0, 3, 6 and 9, versus vehicle control): lower than for vehicle control treated animals; EAE development (clinical score) ([2]; 1 mg/kg s.c. in corn oil day 0, 3, 6 and 9, DA rats): efficiently prevented EAE development
Cn1c(=O)c(C(=O)Nc2ccccc2)c(O)c2ccccc21 [Compound 3, N-phenyl-1,2-dihydro-4-hydroxy-1-methyl-2-oxo-quinoline-3-carboxamide, reference compound] |  | < 1 | 
CC(=O)Oc1c(C(=O)N(C(C)=O)c2ccccc2)c(=O)n(C)c2ccccc12 [Compound 1, N-acetyl-N-phenyl-4-acetoxy-1,2-dihydro-1-methyl-2-oxo-quinoline-3-carboxamide] | 38 (≈ 100 µM) | 21 (≈ 55.5 µM) | 
O=c1cc(-c2ccccc2)oc2ccc3ccccc3c12 [beta-naphthoflavone] |  |  | pEC50 (human AhR): 5.68

Reference: US8962598B2, “1,2-dihydro-4-hydroxy-2-oxo-quinoline-3-carboxanilides as AHR activators” (Immunahr AB, priority 2010, dated 2015)
